The target of the experiment is Cdk2^as (Homo sapiens, UniProt P24941, F80G). The experiment in a line: histone H1 kinase assay with [γ-32P]ATP, purified Cdk2/cyclin A. The experiment is classed as biochemical.

Usually IC50 stands for the concentration at which inhibition is half-maximal. Compound `Cc1cccc(Cc2nn(C(C)(C)C)c3ncnc(N)c23)c1` [3-MB-PP1] displayed an IC50 of about 3 nM.

The record behind these values is paper PMC3119039 (2011).
